Results on four compounds are retold here after patent publication US20250340532A1, “HETEROCYCLIC COMPOUND CCR4 INHIBITOR AND USER THEREOF” (Xizang Haisco Pharmaceutical Co., Ltd., priority 2022, published 2025).

The structures appear in SMILES notation.

By AUC is commonly meant concentration integrated over time. Higher therefore signals high exposure. The term clearance denotes the rate of elimination divided by the concentration. Low readings indicate a low capacity for elimination, high ones a high capacity for elimination. What is called IC50 is the point on the concentration scale where inhibition reaches its midpoint. In general, AUC(0-t) refers to exposure summed from dosing to a finite time, without extrapolation to infinity. A low value points to low exposure.

The nature of data set [1]: Pharmacokinetic test in rats. The note with it: for AUC / clearance / Vd: male, SD, rat, plasma; for Vd: read-out: Vdss. The class given is in vivo, SD rats. How it is done:
1.1 Experimental animals: male SD rats, about 220 g, 6-8 weeks old, 6 rats/compound. Purchased from Chengdu Ddossy Experimental Animals Co., Ltd.
1.2 Experimental design: on the day of the experiment, 36 SD rats were randomly grouped according to their body weights. The animals were fasted with water available for 12 to 14 h one day before the administration and were fed 4 h after the administration.
Before and after the administration, 0.15 ml of blood was taken from the orbit of the animals under isoflurane anesthesia and placed in an EDTAK2 centrifuge tube. The blood was centrifuged at 5000 rpm and 4° C. for 10 min to collect plasma. The blood collection time points for the intravenous administration group and intragastric administration group were: 0, 5 min, 15 min, 30 min, 1 h, 2 h, 4 h, 6 h, 8 h and 24 h. Before analysis and detection, all samples were stored at −80° C., and a quantitative analysis of samples was performed using LC-MS/MS.

Data set [2] has as its target T1, CCR4 (Homo sapiens, UniProt P51679).
T1 construct: expressed in transfected cells; host or cells: HEK293
T1 sequence (P51679 1-360): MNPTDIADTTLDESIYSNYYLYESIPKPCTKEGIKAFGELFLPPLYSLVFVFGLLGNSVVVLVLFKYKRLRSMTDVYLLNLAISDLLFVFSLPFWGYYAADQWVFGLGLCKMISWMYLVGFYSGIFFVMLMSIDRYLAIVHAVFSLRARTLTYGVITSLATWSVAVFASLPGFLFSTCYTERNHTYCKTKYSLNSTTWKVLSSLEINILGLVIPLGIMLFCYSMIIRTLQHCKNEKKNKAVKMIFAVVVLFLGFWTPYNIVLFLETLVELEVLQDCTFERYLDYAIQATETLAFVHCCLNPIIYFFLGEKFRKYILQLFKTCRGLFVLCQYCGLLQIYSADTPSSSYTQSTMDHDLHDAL
Nature of the data set: Calcium flow detected by FLIPR. The note with it: CCR4/HEK293 cells, agonist CCL17, Fluo-4 calcium signal. The class given is cell-based. The procedure:
CCR4/HEK293 cells were added to a 384-well cell culture plate (Greiner #781946) at a rate of 20 μL/well (20,000 cells/well) and incubated overnight in a 37° C., 5% CO2 incubator (Incubator, Thermo). On the second day, the 384-well cell culture plate was taken out of the incubator and the culture medium was removed; Then, 20 μL of detection buffer and 20 μL of 2X Fluo-4 Direct™ (Invitrogen, Cat #F10471) were added. Then, compounds were added at 10 μL/well (compounds were subjected to 4-fold serial dilution, and the highest detection concentration was 10 μM), and the cells were incubated in a 37° C., 5% CO2 incubator for 50 min, and then incubated at room temperature for 10 min. The 384-well culture plate was placed in FLIPR ([…]), 10 μL of 6X agonist CCL17 was added by using an automatic loader, and the fluorescence signal was read immediately. The mean and standard error (Mean±SEM) were statistically analyzed using Graphpad Prism software, and the IC50 value was calculated.
The experimental results are shown in Table 3, where A represents IC50<100 nm; B represents 100 nM≤IC50<500 nM, and C represents 500 nM≤IC50.

Data set [3] in a line: Pharmacokinetic test in monkeys. The settings on record: for AUC(0-t) / clearance / Vd: male, cynomolgus monkey, plasma; for Vd: read-out: Vdss. The class given is in vivo, cynomolgus monkeys. The procedure: Experimental animals: Male cynomolgus monkeys, 3-5 kg, 3-6 years old, 4 monkeys/compound. purchased from Suzhou Xishan Biotechnology Inc.
Experimental method: On the day of the experiment, 8 monkeys were randomly grouped according to their body weights. The animals were fasted with water available for 14 to 18 h one day before the administration, and were fed 4 h after the administration.
Before and after the administration, 1.0 mL of blood samples were drawn from the limb veins and placed in an EDTAK2 centrifuge tube. Centrifugation was carried out at 5000 rpm at 4° C. for 10 min, and the plasma was collected. The blood collection time points for the intravenous group and intragastric administration group were: 0 min, 5 min, 15 min, 30 min, 1 h, 2 h, 4 h, 6 h, 8 h, 10 h, 12 h, 24 h, and 48 h. Before analysis and detection, all samples were stored at −80° C., and a quantitative analysis of samples was performed using LC-MS/MS.

Data set [4] in a line: Pharmacokinetic test in beagle dogs. The data set is classed as in vivo. The settings on record: for AUC(0-t) / clearance / Vd: male, beagle, dog, plasma; for Vd: read-out: Vdss. How it is done: Experimental animals: male beagle dogs, about 8-11 kg, 6 beagle dogs/compound, purchased from Beijing Marshall Biotechnology Co., Ltd.
Experimental method: On the day of the experiment, 18 beagle dogs were randomly grouped according to their body weights. The animals were fasted with water available for 12 to 14 h one day before the administration and were fed 4 h after the administration.
Before and after the administration, 1 ml of blood was taken from the jugular veins or limb veins, and placed in an EDTAK2 centrifuge tube. Centrifugation was performed at 5000 rpm at 4° C. for 10 min, and plasma was collected. The blood collection time points for the intravenous group and intragastric administration group were: 0 min, 5 min, 15 min, 30 min, 1 h, 2 h, 4 h, 6 h, 8 h, 10 h, 12 h, 24 h, 48 h, and 72 h. Before analysis and detection, all samples were stored at −80° C. The samples were analyzed quantitatively by LC-MS/MS.

A short description of data set [5]: Pharmacokinetic test in mice. The class given is in vivo, C57 mice. The note with it: for AUC(0-t) / clearance / Vd: male, C57, mouse, plasma; for Vd: read-out: Vdss. The procedure: 1.1 Experimental animals: Male C57 mice, 20-25 g, 6 mice/compound. Purchased from Chengdu Ddossy Experimental Animals Co., Ltd.
1.2 Experimental design: On the day of the experiment, 24 C57 mice were randomly grouped according to their body weight. The animals were fasted with water available for 12 to 14 h one day before the administration and were fed 4 h after the administration.
Before and after the administration, 0.06 mL of blood was taken from the orbit of the animals under isoflurane anesthesia and placed in an EDTAK2 centrifuge tube. The blood was centrifuged at 5000 rpm and 4° C. for 10 min to collect plasma. The blood collection time points for the intravenous group and intragastric administration group were: 0 min, 5 min, 15 min, 30 min, 1 h, 2 h, 4 h, 7 h and 24 h. Before analysis and detection, all samples were stored at −80° C., and a quantitative analysis of samples was performed using LC-MS/MS.

In the case of `Cc1nc(N2CC(C3CN(C4CC(C)(C(=O)O)C4)CCO3)C2)nc(NC(C)c2ccc(Cl)cc2Cl)c1Cl` (single isomer, unassigned) [Compound 9 isomer 3], the F is recorded as 98.7 ± 19% in data set [1] (i.g. 10 mg/kg) and 72.8 ± 57% in data set [3] (i.g. 5 mg/kg). The AUC in data set [1] (iv, i.v. 2.5 mg/kg) came to 6280 ± 402 ng·h/mL; in data set [1] (po, i.g. 10 mg/kg), 24800 ± 4810 ng·h/mL. Moreover, the clearance in data set [1] (iv, i.v. 2.5 mg/kg) amounted to 6.61 ± 0.42 mL/min/kg; in data set [3] (iv, i.v. 1 mg/kg), 2.44 ± 0.51 mL/min/kg. Also, the Vd in data set [1] (iv, i.v. 2.5 mg/kg) was found to be 1.49 ± 0.13 L/kg; in data set [3] (iv, i.v. 1 mg/kg), 0.995 ± 0.088 L/kg. Moreover, the IC50 in data set [2] is < 100 nM. For the same compound, the AUC(0-t) is 6930 ± 1440 ng·h/mL in data set [3] (iv, i.v. 1 mg/kg) and 25200 ± 19900 ng·h/mL in data set [3] (po, i.g. 5 mg/kg).

Take `CC(Nc1cc(N2CCC(C3CN(C4CC(C)(C(=O)O)C4)CCO3)CC2)ccc1Cl)c1ccc(Cl)cc1Cl` (single isomer, unassigned) [Compound 82 isomer 3]: in data set [4] (i.g. 3 mg/kg), the F is given as >98%. Moreover, in data set [4] (iv, i.v. 1 mg/kg), the AUC(0-t) worked out at 21100 ± 3840 ng·h/mL, the clearance amounted to 0.672 ± 0.14 mL/min/kg and the Vd stood at 1.04 ± 0.2 L/kg. This compound also gave an AUC(0-t) in data set [4] (po, i.g. 3 mg/kg) of 68400 ± 7190 ng·h/mL. Moreover, the IC50 in data set [2] is < 100 nM.

Take `C[C@@H](Nc1cc(N2CC(C3CN(C4CC(C)(C(=O)O)C4)CCO3)C2)ccc1Cl)c1ccc(Cl)cc1Cl` (single isomer, unassigned) [Compound 83 isomer 1]: the F in data set [1] (i.g. 10 mg/kg) is recorded as >98%; in data set [5] (i.g. 10 mg/kg) it was 91.6 ± 12%; in data set [3] (i.g. 5 mg/kg), 76.8 ± 27%. Further, the AUC was 7320 ± 1280 ng·h/mL in data set [1] (iv, i.v. 2.5 mg/kg) and 37000 ± 2820 ng·h/mL in data set [1] (po, i.g. 10 mg/kg). Besides, the clearance in data set [1] (iv, i.v. 2.5 mg/kg) was 5.53 ± 1 mL/min/kg; in data set [5] (iv, i.v. 2.5 mg/kg), 5.69 ± 0.6 mL/min/kg; in data set [3] (iv, i.v. 1 mg/kg) it was 1.02 ± 0.14 mL/min/kg. For the same compound, the Vd in data set [1] (iv, i.v. 2.5 mg/kg) is 2.25 ± 0.27 L/kg; in data set [5] (iv, i.v. 2.5 mg/kg), 1.77 ± 0.069 L/kg; in data set [3] (iv, i.v. 1 mg/kg), 0.754 ± 0.15 L/kg. For the same compound, the AUC(0-t) in data set [5] (iv, i.v. 2.5 mg/kg) is 7250 ± 726 ng·h/mL; in data set [5] (po, i.g. 10 mg/kg), 26600 ± 3520 ng·h/mL; in data set [3] (iv, i.v. 1 mg/kg) it was 15800 ± 1740 ng·h/mL; in data set [3] (po, i.g. 5 mg/kg), 60700 ± 21600 ng·h/mL. Further, in data set [2], the IC50 is < 100 nM.

Turning to `Cc1nc(N2CCC(C3CN(C4CC(C)(C(=O)O)C4)CCO3)CC2)nc(NC(C)c2ccc(Cl)cc2Cl)c1Cl` (single isomer, unassigned) [Compound 73 isomer 3], the figures for the F in data set [4] (i.g. 3 mg/kg), in data set [1] (i.g. 10 mg/kg) and in data set [5] (i.g. 10 mg/kg) were >98%, 80.3 ± 34% and 90.4 ± 14%, respectively. Besides, the AUC(0-t) in data set [4] (iv, i.v. 1 mg/kg) was 12100 ± 3170 ng·h/mL; in data set [4] (po, i.g. 3 mg/kg), 37700 ± 10100 ng·h/mL; in data set [5] (iv, i.v. 2.5 mg/kg), 7400 ± 385 ng·h/mL; in data set [5] (po, i.g. 10 mg/kg), 26800 ± 4110 ng·h/mL. The clearance was found to be 1.38 ± 0.4 mL/min/kg in data set [4] (iv, i.v. 1 mg/kg); 9.19 ± 2.1 mL/min/kg in data set [1] (iv, i.v. 2.5 mg/kg); 5.62 ± 0.29 mL/min/kg in data set [5] (iv, i.v. 2.5 mg/kg). Also, the Vd in data set [4] (iv, i.v. 1 mg/kg) was 1.2 ± 0.16 L/kg; in data set [1] (iv, i.v. 2.5 mg/kg), 1.55 ± 0.091 L/kg; in data set [5] (iv, i.v. 2.5 mg/kg) it was 1.04 ± 0.055 L/kg. The AUC in data set [1] (iv, i.v. 2.5 mg/kg) was 4630 ± 1030 ng·h/mL; in data set [1] (po, i.g. 10 mg/kg) it was 14900 ± 6380 ng·h/mL. Further, in data set [2], the IC50 was < 100 nM.
